Experimental findings from patent US10710986B2, “PD-1/PD-L1 inhibitors” (Gilead Sciences, Inc., priority 2018, dated 2020) are described below.

Structures are written as SMILES.

For this assay, the target named is PD-1/PD-L1 (Homo sapiens (Human), UniProt Q9NZQ7). Kind of assay: PD-1/PD-L1 biochemical protein-protein interaction assay (ALPHA). The note with it: 0.3 nM His tagged PD-L1, 2.5 nM biotinylated Fc-PD-1, 60 minutes at 25° C., read-out: IC50 PD-L1-PD1. On the procedure: Binding of the protein pairs is measured using a bead based Amplified Luminescent Proximity Homogeneous Assay (ALPHA) platform. Binding of each protein pair results in proximity of the donor and acceptor beads which leads to an increase in ALPHA signal. […] Assays are performed in 25 mM Hepes (pH 7.4), 150 mM NaCl, 3.4 mM EDTA, 0.005% Tween 20, and 0.01% BSA. […] After an assay reaction time of 60 minutes at 25° C., binding was measured with addition of 20 μg/mL ALPHA assay acceptor beads (anti-His coated) and 20 µg/mL ALPHA assay donor beads (streptavidin coated). IC50 values were calculated from the fit of the dose-response curves to a four-parameter equation.
Chain of PD-1/PD-L1 (Q9NZQ7 19-238): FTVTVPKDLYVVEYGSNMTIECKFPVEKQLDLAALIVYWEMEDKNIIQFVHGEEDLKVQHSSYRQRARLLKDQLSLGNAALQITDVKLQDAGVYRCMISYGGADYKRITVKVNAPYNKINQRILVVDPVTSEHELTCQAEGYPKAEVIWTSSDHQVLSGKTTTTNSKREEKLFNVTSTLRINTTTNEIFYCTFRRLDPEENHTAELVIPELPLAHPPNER

Turning to `COc1nc(-c2cccc(-c3cccc(-c4cnc(CN5CC6(CCC(=O)N6)C5)c(OC)n4)c3Cl)c2F)cnc1CN1CC2(CCC(=O)N2)C1` [compound 1], the IC50 was 0.08 nM.

For the molecule `COc1nc(-c2cccc(-c3cccc(-c4cnc(CN5CC(O)C5)c(OC)n4)c3Cl)c2F)cnc1CN1CC(O)C1` [compound 2], the IC50 was determined as 0.135 nM.

For `COc1nc(-c2cccc(-c3cccc(-c4cnc(CN5CC(OC)C5)c(OC)n4)c3Cl)c2F)cnc1CN1CC(OC)C1` [compound 3], the IC50 worked out at 0.318 nM.

For the molecule `COc1nc(-c2cccc(-c3cccc(-c4cnc(CN5CC6(C5)CN(C(C)=O)C6)c(OC)n4)c3Cl)c2F)cnc1CN1CC2(C1)CN(C(C)=O)C2` [compound 4], the IC50 came out at 0.086 nM.

Turning to `COc1nc(-c2cccc(-c3cccc(-c4cnc(CNCCO)c(OC)n4)c3Cl)c2F)cnc1CNCCO` [compound 5], the IC50 amounted to 0.213 nM.

Consider `COc1nc(-c2cccc(-c3cccc(-c4cnc(CNC[C@@H]5CCC(=O)N5)c(OC)n4)c3Cl)c2F)cnc1CNC[C@@H]1CCC(=O)N1` [compound 6], for which the IC50 worked out at 0.099 nM.

As for `COc1nc(-c2cccc(-c3cccc(-c4cnc(CNC56CC(C#N)(C5)C6)c(OC)n4)c3Cl)c2Cl)cnc1CNC[C@@H]1CCC(=O)N1` [compound 7], the IC50 came to 0.43 nM.

Take `COc1nc(-c2cccc(-c3cccc(-c4cnc(CNC56CC(OC)(C5)C6)c(OC)n4)c3Cl)c2Cl)cnc1CNC[C@@H]1CCC(=O)N1` [compound 8]: the IC50 stood at 0.59 nM.

For `COc1nc(-c2cccc(-c3cccc(-c4cnc(CN5CC(C)(C#N)C5)c(OC)n4)c3Cl)c2Cl)cnc1CNC[C@@H]1CCC(=O)N1` [compound 9], the IC50 is 0.49 nM.

With `COc1nc(-c2cccc(-c3cccc(-c4cnc(CN5CC(C#N)C5)c(OC)n4)c3Cl)c2Cl)cnc1CNC[C@@H]1CCC(=O)N1` [compound 10], the IC50 came to 0.27 nM.

As to `COc1nc(-c2cccc(-c3cccc(-c4cnc(CN[C@@H]5COC[C@H]5O)c(OC)n4)c3Cl)c2Cl)cnc1CNC[C@@H]1CCC(=O)N1` [compound 11], the IC50 was found to be 0.172 nM.

As for `COc1nc(-c2cccc(-c3cccc(-c4cnc(CNC56CC(C5)C6)c(OC)n4)c3Cl)c2Cl)cnc1CNC[C@@H]1CCC(=O)N1` [compound 12], the IC50 was determined as 1.49 nM.

On to `COc1nc(-c2cccc(-c3cccc(-c4cnc(CN5CC(C(N)=O)C5)c(OC)n4)c3Cl)c2Cl)cnc1CNC[C@@H]1CCC(=O)N1` [compound 13], for which the IC50 was found to be 0.482 nM.

On to `COc1nc(-c2cccc(-c3cccc(-c4cnc(CN5CC(N6CCCC6=O)C5)c(OC)n4)c3Cl)c2Cl)cnc1CNC[C@@H]1CCC(=O)N1` [compound 14], for which the IC50 came out at 0.224 nM.

For the molecule `COc1nc(-c2cccc(-c3cccc(-c4cnc(CNC56CC(C(F)(F)F)(C5)C6)c(OC)n4)c3Cl)c2Cl)cnc1CNC[C@@H]1CCC(=O)N1` [compound 15], the half-inhibitory concentration (IC50) was 7.51 nM.

Consider `COc1nc(-c2cccc(-c3cccc(-c4cnc(CN5CC(C)(O)C5)c(OC)n4)c3Cl)c2Cl)cnc1CNC[C@@H]1CCC(=O)N1` [compound 16], for which the IC50 is 0.173 nM.

In the case of `COc1nc(-c2cccc(-c3cccc(-c4cnc(CNC[C@H]5CCCN5C(C)=O)c(OC)n4)c3Cl)c2Cl)cnc1CNC[C@@H]1CCC(=O)N1` [compound 17], the IC50 was 0.163 nM.

For `COc1nc(-c2cccc(-c3cccc(-c4cnc(CNC[C@@H]5CCCN5C(C)=O)c(OC)n4)c3Cl)c2Cl)cnc1CNC[C@@H]1CCC(=O)N1` [compound 18], the IC50 was 0.266 nM.

`CNC(=O)[C@@H]1CCCN1Cc1ncc(-c2cccc(-c3cccc(-c4cnc(CNC[C@@H]5CCC(=O)N5)c(OC)n4)c3Cl)c2Cl)nc1OC` [compound 19]: the IC50 was 0.199 nM.

For `CNC(=O)[C@H]1CCCN1Cc1ncc(-c2cccc(-c3cccc(-c4cnc(CNC[C@@H]5CCC(=O)N5)c(OC)n4)c3Cl)c2Cl)nc1OC` [compound 20], the IC50 turned out to be 0.546 nM.

Take `COC[C@H]1CCCN1Cc1ncc(-c2cccc(-c3cccc(-c4cnc(CNC[C@@H]5CCC(=O)N5)c(OC)n4)c3Cl)c2Cl)nc1OC` [compound 21]: the IC50 is 0.525 nM.

For `COC[C@@H]1CCCN1Cc1ncc(-c2cccc(-c3cccc(-c4cnc(CNC[C@@H]5CCC(=O)N5)c(OC)n4)c3Cl)c2Cl)nc1OC` [compound 22], the IC50 was 0.506 nM.

Regarding `COc1nc(-c2cccc(-c3cccc(-c4cnc(CN5CCC[C@@H]5CO)c(OC)n4)c3Cl)c2Cl)cnc1CNC[C@@H]1CCC(=O)N1` [compound 23], the IC50 came out at 0.221 nM.

With `COc1nc(-c2cccc(-c3cccc(-c4cnc(CN5CCC[C@H]5CO)c(OC)n4)c3Cl)c2Cl)cnc1CNC[C@@H]1CCC(=O)N1` [compound 24], the IC50 was 0.179 nM.

Regarding `COc1nc(-c2cccc(-c3cccc(-c4cnc(CNC[C@@H]5CCC(=O)N5)c(OC)n4)c3Cl)c2Cl)cnc1CNCCOC(N)=O` [compound 25], the IC50 was determined as 0.08 nM.

Consider `COc1nc(-c2cccc(-c3cccc(-c4cnc(CNC[C@@H]5CCC(=O)N5)c(OC)n4)c3Cl)c2Cl)cnc1CNCc1cnn(CCO)c1` [compound 26], for which the concentration for half-maximal inhibition (IC50) amounted to 0.06 nM.

For the molecule `COc1nc(-c2cccc(-c3cccc(-c4cnc(CNC[C@@H]5CCC(=O)N5)c(OC)n4)c3Cl)c2Cl)cnc1CNCc1ccn(C)n1` [compound 27], the IC50 worked out at 0.09 nM.

As to `COc1nc(-c2cccc(-c3cccc(-c4cnc(CNC[C@@H]5CCC(=O)N5)c(OC)n4)c3Cl)c2Cl)cnc1CNCc1nc[nH]n1` [compound 28], the IC50 is 0.436 nM.

With `COc1nc(-c2cccc(-c3cccc(-c4cnc(CNCc5nc(C)n[nH]5)c(OC)n4)c3Cl)c2Cl)cnc1CNCc1nc(C)n[nH]1` [compound 29], the IC50 was 1.09 nM.

As for `COc1nc(-c2cccc(-c3cccc(-c4cnc(CNCc5ccn(C)n5)c(OC)n4)c3Cl)c2Cl)cnc1CNCc1ccn(C)n1` [compound 30], the IC50 was found to be 0.475 nM.

For the molecule `CCn1cc(CNCc2ncc(-c3cccc(-c4cccc(-c5cnc(CNCc6cnn(CC)c6)c(OC)n5)c4Cl)c3Cl)nc2OC)cn1` [compound 31], the IC50 amounted to 0.334 nM.

For the molecule `CCn1cc(CNCc2ncc(-c3cccc(-c4cccc(-c5cnc(CNC[C@@H]6CCC(=O)N6)c(OC)n5)c4Cl)c3Cl)nc2OC)nn1` [compound 32], the IC50 came out at 0.187 nM.

As to `COc1nc(-c2cccc(-c3cccc(-c4cnc(CNC[C@@H]5CCC(=O)N5)c(OC)n4)c3Cl)c2Cl)cnc1CNCCc1cnn[nH]1` [compound 33], the IC50 was determined as 0.138 nM.

Regarding `COc1nc(-c2cccc(-c3cccc(-c4cnc(CNC[C@@H]5CCC(=O)N5)c(OC)n4)c3Cl)c2Cl)cnc1CNCc1ccnn1C` [compound 34], the IC50 came to 0.231 nM.

On to `COc1nc(-c2cccc(-c3cccc(-c4cnc(CNC[C@@H]5CCC(=O)N5)c(OC)n4)c3Cl)c2Cl)cnc1CNCc1c[nH]nn1` [compound 35], for which the IC50 was 0.191 nM.

For `COc1nc(-c2cccc(-c3cccc(-c4cnc(CN5C[C@@H](N)CCC5=O)c(OC)n4)c3Cl)c2Cl)cnc1CNC[C@@H]1CCC(=O)N1` [compound 36], the IC50 was found to be 1.29 nM.

With `COc1nc(-c2cccc(-c3cccc(-c4cnc(CNC[C@@H]5CCC(=O)N5)c(OC)n4)c3Cl)c2Cl)cnc1CNCCNc1ccc([N+](=O)[O-])cc1` [compound 37], the IC50 was 1.7 nM.

Take `COc1nc(-c2cccc(-c3cccc(-c4cnc(CNC(CO)c5nn[nH]n5)c(OC)n4)c3Cl)c2Cl)cnc1CNC[C@@H]1CCC(=O)N1` (stereo partly drawn) [compound 38]: the IC50 amounted to 0.66 nM.

With `COc1nc(-c2cccc(-c3cccc(-c4cnc(CN[C@H]5CCNC5=O)c(OC)n4)c3Cl)c2Cl)cnc1CNC[C@@H]1CCC(=O)N1` [compound 39], the IC50 amounted to 0.39 nM.

As to `COc1nc(-c2cccc(-c3cccc(-c4cnc(CN5C[C@@H](F)C[C@H]5CO)c(OC)n4)c3Cl)c2Cl)cnc1CNC[C@@H]1CCC(=O)N1` [compound 40], the IC50 came to 0.238 nM.

For `COc1nc(-c2cccc(-c3cccc(-c4cnc(CN5CCNC(=O)C5)c(OC)n4)c3Cl)c2Cl)cnc1CNC[C@@H]1CCC(=O)N1` [compound 41], the IC50 was 0.083 nM.

As for `COc1nc(-c2cccc(-c3cccc(-c4cnc(CNC[C@@H]5CCC(=O)N5)c(OC)n4)c3Cl)c2Cl)cnc1CNCCS(=O)(=O)O` [compound 42], the concentration for half-maximal inhibition (IC50) came to 3.42 nM.

In the case of `COc1nc(-c2cccc(-c3cccc(-c4cnc(CNC[C@@H]5CCC(=O)N5)c(OC)n4)c3Cl)c2Cl)cnc1CNCCS(N)(=O)=O` [compound 43], the IC50 is 0.083 nM.

In the case of `COc1nc(-c2cccc(-c3cccc(-c4cnc(CNC[C@@H]5CCC(=O)N5)c(OC)n4)c3Cl)c2Cl)cnc1CNCCNC(N)=O` [compound 44], the IC50 worked out at 0.113 nM.

Consider `COc1nc(-c2cccc(-c3cccc(-c4cnc(CNC[C@@H]5CCC(=O)N5)c(OC)n4)c3Cl)c2Cl)cnc1CNCCC(N)=O` [compound 45], for which the concentration for half-maximal inhibition (IC50) was 0.064 nM.

For `COc1nc(-c2cccc(-c3cccc(-c4cnc(CN(C)C)c(OC)n4)c3Cl)c2Cl)cnc1CNC[C@@H]1CCC(=O)N1` [compound 46], the IC50 was 0.081 nM.

Turning to `COc1nc(-c2cccc(-c3cccc(-c4cnc(CNC[C@@H]5CCC(=O)N5)c(OC)n4)c3Cl)c2Cl)cnc1CNCC(O)C(F)(F)F` (stereo partly drawn) [compound 47], the IC50 was 0.16 nM.

With `CCN(CCc1cn[nH]c1)Cc1ncc(-c2cccc(-c3cccc(-c4cnc(CNC[C@@H]5CCC(=O)N5)c(OC)n4)c3Cl)c2Cl)nc1OC` [compound 48], the IC50 amounted to 0.822 nM.

As for `COc1nc(-c2cccc(-c3cccc(-c4cnc(CNC[C@@H]5CCC(=O)N5)c(OC)n4)c3Cl)c2Cl)cnc1CNCCc1cn[nH]c1` [compound 49], the IC50 came to 0.356 nM.

On to `COc1nc(-c2cccc(-c3cccc(-c4cnc(CN5CC6(CNC(=O)O6)C5)c(OC)n4)c3Cl)c2Cl)cnc1CNC[C@@H]1CCC(=O)N1` [compound 50], for which the IC50 is 0.259 nM.

Turning to `COc1nc(-c2cccc(-c3cccc(-c4cnc(CN(C)CC(N)=O)c(OC)n4)c3Cl)c2Cl)cnc1CNC[C@@H]1CCC(=O)N1` [compound 51], the IC50 came out at 0.301 nM.

In general, IC50 refers to the midpoint of a concentration-inhibition curve.
